Test results taken from the Kinase Knowledgebase extract (Sharma et al. 2016).

Key:
PIK3CA (human) = PIK3CA (human) (UniProt P42336); assay: Enzyme Assay
PIK3CG (human) = PIK3CG (human) (UniProt P48736); assay: Inhibition of PIK3CG Kinase Activity
Sequence of PIK3CG (human) (P48736 whole entry, looked up): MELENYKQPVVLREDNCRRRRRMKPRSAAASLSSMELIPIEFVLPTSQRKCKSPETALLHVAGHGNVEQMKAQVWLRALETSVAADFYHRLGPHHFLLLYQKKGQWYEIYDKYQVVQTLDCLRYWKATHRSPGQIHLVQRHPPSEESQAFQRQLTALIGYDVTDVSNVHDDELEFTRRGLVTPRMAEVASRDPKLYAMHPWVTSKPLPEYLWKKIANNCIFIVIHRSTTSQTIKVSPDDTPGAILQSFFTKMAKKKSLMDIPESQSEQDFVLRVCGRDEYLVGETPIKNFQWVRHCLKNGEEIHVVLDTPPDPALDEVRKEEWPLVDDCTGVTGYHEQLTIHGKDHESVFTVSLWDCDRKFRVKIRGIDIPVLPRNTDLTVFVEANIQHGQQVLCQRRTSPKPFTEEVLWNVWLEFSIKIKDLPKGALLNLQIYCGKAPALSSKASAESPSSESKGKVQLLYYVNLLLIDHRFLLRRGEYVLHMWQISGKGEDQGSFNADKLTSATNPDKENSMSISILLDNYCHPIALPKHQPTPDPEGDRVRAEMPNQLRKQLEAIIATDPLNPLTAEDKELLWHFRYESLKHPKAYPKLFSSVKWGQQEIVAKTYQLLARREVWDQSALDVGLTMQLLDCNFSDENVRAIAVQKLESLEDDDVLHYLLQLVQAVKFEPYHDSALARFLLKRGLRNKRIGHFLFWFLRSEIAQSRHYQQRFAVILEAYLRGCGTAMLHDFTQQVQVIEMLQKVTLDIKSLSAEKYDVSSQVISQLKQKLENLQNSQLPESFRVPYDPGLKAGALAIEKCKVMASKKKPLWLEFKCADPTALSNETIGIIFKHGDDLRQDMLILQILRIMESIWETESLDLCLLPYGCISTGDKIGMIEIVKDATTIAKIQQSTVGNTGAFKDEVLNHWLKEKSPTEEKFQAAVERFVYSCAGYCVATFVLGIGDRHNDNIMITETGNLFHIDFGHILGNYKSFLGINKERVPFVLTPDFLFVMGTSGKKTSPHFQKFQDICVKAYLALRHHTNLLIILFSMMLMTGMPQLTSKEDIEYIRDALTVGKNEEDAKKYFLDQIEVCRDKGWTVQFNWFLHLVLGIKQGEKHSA

Sequence of PIK3CA (human) (P42336 whole entry, looked up): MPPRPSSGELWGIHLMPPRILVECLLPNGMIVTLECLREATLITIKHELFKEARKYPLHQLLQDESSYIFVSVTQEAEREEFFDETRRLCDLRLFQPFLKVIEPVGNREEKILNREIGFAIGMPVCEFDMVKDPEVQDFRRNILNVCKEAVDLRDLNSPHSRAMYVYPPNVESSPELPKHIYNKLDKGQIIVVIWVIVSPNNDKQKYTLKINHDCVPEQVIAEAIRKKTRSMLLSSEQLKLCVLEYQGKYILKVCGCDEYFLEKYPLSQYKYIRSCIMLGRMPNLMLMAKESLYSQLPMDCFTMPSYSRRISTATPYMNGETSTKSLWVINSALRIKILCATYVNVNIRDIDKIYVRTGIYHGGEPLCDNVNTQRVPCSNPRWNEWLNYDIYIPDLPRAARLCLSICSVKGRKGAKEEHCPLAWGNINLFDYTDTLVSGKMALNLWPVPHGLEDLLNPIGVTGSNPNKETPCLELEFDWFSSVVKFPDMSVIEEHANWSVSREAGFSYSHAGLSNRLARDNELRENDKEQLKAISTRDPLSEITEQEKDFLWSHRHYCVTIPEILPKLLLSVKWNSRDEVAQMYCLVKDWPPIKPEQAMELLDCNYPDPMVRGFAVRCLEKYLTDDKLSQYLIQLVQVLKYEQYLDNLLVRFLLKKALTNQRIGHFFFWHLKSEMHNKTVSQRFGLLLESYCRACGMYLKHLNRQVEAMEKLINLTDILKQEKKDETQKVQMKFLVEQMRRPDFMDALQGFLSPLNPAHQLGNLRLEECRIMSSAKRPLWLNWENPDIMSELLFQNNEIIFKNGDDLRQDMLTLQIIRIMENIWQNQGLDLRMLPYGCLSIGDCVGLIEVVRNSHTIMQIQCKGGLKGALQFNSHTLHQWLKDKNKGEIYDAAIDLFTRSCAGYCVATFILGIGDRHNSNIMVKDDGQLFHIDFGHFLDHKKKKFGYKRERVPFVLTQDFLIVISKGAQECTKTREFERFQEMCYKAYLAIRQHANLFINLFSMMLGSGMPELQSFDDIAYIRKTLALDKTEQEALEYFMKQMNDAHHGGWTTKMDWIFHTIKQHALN

Question: For `CN(C)C(=O)CN(C)C(=O)C1CCN(c2ccnc3c2c(C=C2Oc4ccc(NC(=O)Nc5cccnc5)cc4C2=O)cn3C)CC1`, which IC50 (PIK3CA (human)) is on record?
Answer: 4230 nM

Question: What about the IC50 (PIK3CG (human)) of the same compound?
Answer: 6830 nM

Question: How did the IC50 (PIK3CA (human)) turn out when `Cn1cc(/C=C2\Oc3ccc(NC(=O)NC4CC4)cc3C2=O)c2c(N3CC4CCC(C3)O4)ccnc21` was run?
Answer: 289 nM

Question: And the IC50 (PIK3CG (human))?
Answer: 2130 nM

Question: With `Cn1cc(/C=C2\Oc3cccc(O)c3C2=O)c2c(-c3ccc[nH]3)ccnc21` as the compound, how does the IC50 (PIK3CA (human)) read?
Answer: 381 nM

Question: And the IC50 (PIK3CG (human))?
Answer: 2090 nM

Question: For `CN(C)S(=O)(=O)c1ccc(-c2ccnc3c2c(/C=C2\Oc4cccc(O)c4C2=O)cn3C)cc1`, which IC50 (PIK3CA (human)) is on record?
Answer: 38 nM

Question: And the IC50 (PIK3CG (human))?
Answer: 106 nM

Question: How did the IC50 (PIK3CA (human)) turn out when `Cn1cc(/C=C2\Oc3cc(O)cc(O)c3C2=O)c2c(-c3ccc(OC(F)(F)F)cc3)ccnc21` was run?
Answer: 183 nM

Question: And the IC50 (PIK3CG (human))?
Answer: 139 nM

Question: For `Cn1cc(/C=C2\Oc3cccc(O)c3C2=O)c2c(-c3ccc(C(=O)N4CCOCC4)cc3)ccnc21`, which IC50 (PIK3CA (human)) is on record?
Answer: 49 nM

Question: What about the IC50 (PIK3CG (human)) of the same compound?
Answer: 54 nM

Question: `Cn1cc(/C=C2\Oc3ccc(NC(=O)Nc4ccc(Cl)nc4)cc3C2=O)c2c(N3CC4CCC(C3)O4)ccnc21` was tested. Which IC50 (PIK3CA (human)) did it give?
Answer: 747 nM

Question: What about the IC50 (PIK3CG (human)) of the same compound?
Answer: 2520 nM

Question: For `Cn1cc(/C=C2\Oc3cccc(O)c3C2=O)c2c(-c3ccc(C4=NCCCO4)cc3)ccnc21`, which IC50 (PIK3CA (human)) is on record?
Answer: 109 nM

Question: And the IC50 (PIK3CG (human))?
Answer: 276 nM

Question: How did the IC50 (PIK3CA (human)) turn out when `Cn1cc(/C=C2\Oc3cc(O)cc(O)c3C2=O)c2c(-c3cncnc3)ccnc21` was run?
Answer: 18 nM

Question: And the IC50 (PIK3CG (human))?
Answer: 149 nM

Question: What does the source list for `COc1ccc(-c2ccnc3c2c(/C=C2\Oc4cc(O)cc(O)c4C2=O)cn3C)cc1`?
Answer: IC50 (PIK3CA (human)): 52 nM; IC50 (PIK3CG (human)): 157 nM
